{"source": "patent US7041837B2", "about": "“Heterocyclic compounds having hypolipidemic, hypocholesteremic activities process for their preparation and pharmaceutical compositions containing them and their use in medicine” (Cadilla Healthcare Limited, priority 2001, dated 2006)", "test_system": "Swiss albino mice", "assay": "Serum triglyceride and total cholesterol lowering activity in Swiss albino mice", "format": "in vivo", "settings": "male Swiss albino mice, 3 mg/kg/day orally for 6 days, 1 hour after dosing on 6th day", "protocol": "i) Serum Triglyceride and Total Cholesterol Lowering Activity in Swiss Albino Mice:\nMale Swiss albino mice (SAM) were bred in Zydus animal house. All these animals were maintained under 12 hour light and dark cycle at 25±1° C. Animals were given standard laboratory chow (NIN, Hyderabad, India) and water ad libitum. SAM of 20–30 g body weight range were used.\nThe test compounds were administered orally to Swiss albino mice at 0.001 to 50 mg/kg/day dose for 6 days. The compound was administered after suspending it in 0.25% CMC or dissolving it in water, when compound is water-soluble. Control mice were treated with vehicle (0.25% of Carboxymethylcellulose; dose 10 ml/kg).\nThe blood samples were collected on 0th day and in fed state 1 hour after drug administration on 6th day of the treatment. The blood was collected in non heparinised capillary and the serum was analyzed for triglyceride and total cholesterol (Wieland, O. Methods of Enzymatic analysis. Bergermeyer, H., O., Ed., 1963. 211–214; Trinder, P. Ann. Clin. Biochem. 1969. 6:24–27). Measurement of serum triglyceride and total cholesterol was done using commercial kits (Zydus-Cadila, Pathline, Ahmedabad, India).\nPercentage reduction in triglycerides/total cholesterol were calculated according to the formula:\n[formula] • OC=Zero day control group value OT=Zero day treated group value • TC=Test day control group TT=Test day treated group", "data": [{"smiles": "CCOC(Cc1ccc2cc(OCCn3c(C)ccc3-c3ccc(OC)cc3)ccc2c1)C(=O)OC", "note": "(racemic) [Example 76, (R/S) Methyl-2-ethoxy-3[6-[2-[2-(4-methoxyphenyl)-5-methyl-pyrrol-1-yl]ethoxy]napthalen-2yl]propanoate]", "values": [{"measurement": "% Triglyceride lowering", "result": 26, "unit": "%"}]}]}
